Data from patent US20140148498A1, “METHODS AND COMPOSITIONS FOR THE TREATMENT OF MARFAN SYNDROME AND ASSOCIATED DISORDERS” (THE JOHNS HOPKINS UNIVERSITY, priority 2011, published 2014).

Tested on: ERK1/2
Assay: Western blot of proximal ascending aorta: ERK1/2 activation (Examples 6-8)
Type: in vivo, mice
Conditions: Fbn1^C1039G/+ mice, compared with placebo-treated littermates, FIG. 16B
Excerpt: All mice were cared for under strict compliance with the Animal Care and Use Committee of the Johns Hopkins University School of Medicine. The Smad4 haploinsufficient mice were a generous gift from Dr. Chuxia Deng (NIH/NIDDK, Bethesda). The Fbn1^C1039G/+ line was maintained on a C57BL/6 background, allowing for valid comparisons. In order to further accommodate the potential for temporal- or background-specific variation in genetic or pharmacological manipulation experiments, all comparisons were made between contemporary littermates. Mice were checked daily for death and all mice found dead were immediately necropsied to assess for evidence of aortic dissection. Mice were killed with an inhalation overdose of halothane (Sigma-Aldrich, St. Louis). Mice underwent immediate laparotomy, descending abdominal aortic transection, and PBS (pH 7.4) infusion through the left ventricle to flush out the blood. For Western blot analysis, the proximal ascending aorta (root to right brachiocephalic trunk) was removed, flash frozen in liquid nitrogen and stored at −80° C. Following PBS infusion, mice analyzed for aortic histology had latex injected under low pressure into the left ventricular apex until it was visible in the descending abdominal aorta. The mice were then fixed for 24 hours in 10% buffered formalin, after which the heart and aorta were removed and stored in 70% ethanol.
Mouse monoclonal TGFβNAb (1d11; R&D Systems, Minneapolis) was reconstituted in PBS and administered via intraperitoneal injection 3 times a week at a dose of 5 mg/kg. Treatment was initiated at 1 month of age and continued for 2 months. IgG (Zymed Laboratories Inc, San Francisco) was reconstituted in PBS, and administered at a dose of 10 mg/kg as a control. […]
Protein was extracted using the reagents and protocol from a Total Protein Extraction Kit, in conjunction with a Protein Phosphatase Inhibitor Cocktail (Millipore, MA). […] Equal protein loading of samples was determined by a protein assay (BioRad, CA) and confirmed by probing with antibodies against β-Actin or GAPDH (Sigma, Mo.). […]

`CCCCc1nc(Cl)c(CO)n1Cc1ccc(-c2ccccc2-c2nn[nH]n2)cc1` [losartan] was tested, and the ERK1/2 activation was “significant reduction in ERK1/2 activation”.
